Results taken from US5739385A, “Process for preparing optically active carboxylic acids” (Union Carbide Chemicals & Plastics Technology Corporation, priority 1995, dated 1998).

Tests used:
[1] = Naproxen aldehyde solubility in acetone (visual cloud point / clear point); format: physicochemical
Source text: Solubility data for solids in acetone solvent were obtained by visually obtaining a "cloud" point for a solution of known composition by slowly cooling the solution. After obtaining a "cloud" point the solution was slowly heated until a "dear" point was observed. The "clear" point represents the saturation temperature of the solution and the "cloud" point the temperature at which massive spontaneous nucleation occurs.
Naproxen aldehydes [i.e., R- and S-2-(6-methoxy-2-naphthyl)propionaldehyde]are very soluble in acetone.

[2] = background, in words; cited from earlier work

solubility in acetone ([1]; in words)	temperature dependence of solubility ([1]; in words)	Cloud Point ([1]; solids 22.0 wt %, solids/liquid ratio 0.28, massive spontaneous nucleation temperature)	Clear Point ([1]; solids 22.0 wt %, solids/liquid ratio 0.28, saturation temperature)	Cloud Point ([1]; solids 29.0 wt %, solids/liquid ratio 0.41, massive spontaneous nucleation temperature)	Clear Point ([1]; solids 29.0 wt %, solids/liquid ratio 0.41, saturation temperature)	Cloud Point ([1]; solids 30.0 wt %, solids/liquid ratio 0.43, massive spontaneous nucleation temperature)	Clear Point ([1]; solids 30.0 wt %, solids/liquid ratio 0.43, saturation temperature)	Cloud Point ([1]; solids 35.3 wt %, solids/liquid ratio 0.55, massive spontaneous nucleation temperature)	Clear Point ([1]; solids 35.3 wt %, solids/liquid ratio 0.55, saturation temperature)	Cloud Point ([1]; solids 47.0 wt %, solids/liquid ratio 0.89, massive spontaneous nucleation temperature)	Clear Point ([1]; solids 47.0 wt %, solids/liquid ratio 0.89, saturation temperature)	Compound	anti-arthritic activity [2]
very soluble	very sensitive to temperature	-15 °C	1 °C	-17 °C	6 °C	-6 °C	11 °C	-9 °C	15 °C	5 °C	25 °C	COc1ccc2cc(C(C)C=O)ccc2c1 (racemic) [Naproxen Aldehyde, R- and S-2-(6-methoxy-2-naphthyl)propionaldehyde]	–
–	–	–	–	–	–	–	–	–	–	–	–	COc1ccc2cc([C@H](C)C(=O)O)ccc2c1 [S enantiomer, S-2-(6-methoxy-2-naphthyl)propionic acid]	potent anti-arthritic agent
